Measured values published in patent publication US20110162116A1, “Method For Growing Plants” (priority 2008, published 2011).

Tested on: Cotton
Test: Total dark respiration and SHAM-sensitive AOX by phase shift fluorescence measurement, cotton leaf sections
Assay type: in vivo, Gossypium spp.
Source text: Ozone control. Ozone generators (model OP-35-3P, Grupo Interozone, Brazil) were coupled to ozone monitors (model 202, 2B Technologies, Inc. USA; dynamic range of 1.5 ppbv to 100 ppmv of ozone; precision 1.5 ppbv or 2% of the reading) using a ozone monitor—generator interface (Engineering dep. Crops Advance Brazil). […] This was used as the upper limit for phytotron number one. Phytotron number two was set at 30 ppbv average ozone. Phytotron number three was set at 60 ppbv average ozone. Ozone levels of phytotron number two and three were permanently measured at 10 second intervals and averaged per minute. Each ozone monitor fed averaged values over an analog output to an ozone monitor—ozone generator interface. Hysteresis was set at +/−5 ppbv. Ozone levels were monitored close to the inlet of the two internal circulation ventilators. The ozone generators were adapted to accept an external digital signal from the interface.
Respiration of plant material was tested as follows: Partial oxygen pressure drops due to oxygen consumption as result of dark respiration were measured using phase shift fluorescence measurement. For this, a NeoFox™ Phase Measurement System was used (Fluorometer Bench version using a QBIF600-VIS-NIR laboratory-grade bifurcated optical fiber with FOXY-R-8 cm overcoated fluorescence oxygen needle sensor, Ocean Optics Inc. USA).
Fluorescence phase shift was expressed as Tau in microseconds (μs) and has an inverse and linear relation with the partial oxygen pressure.
Salicylhydroxamic acid (SHAM) (99%, Sigma-Aldrich Brasil Ltda. São Paulo, Brazil) was used as an AOX inhibitor. The soluble sodium salicylhydroxamate salt was prepared by titrating SHAM with 0.1 M sodium hydroxide until neural pH. A stock solution ([…]) was prepared containing 300 ml/L ethanol from initial dissolving SHAM (same abbreviation is used for the salicylhydroxamate salt). From the stock solution a 20 mmol/L salicylhydroxamate final test solution was prepared by taking 12.3 ml stock solution and completing till 100 ml with a phosphate buffer solution (pH 7). The final SHAM test solution thus contained 3.7% residual ethanol. For proper control, the comparative test solution was also provided with 3.7 ml of ethanol per 100 ml of phosphate buffer solution (pH 7). To both solutions two drops of wetting agent (Silwet L-77 AG, GE Silicones Inc. USA) were added per 25 ml of test solution.
Plant material collected was always the first fully grown leaf counting from the apical point downwards or outwards (e.g. for monocotyls). […] Per test, four leafs from four different plants were sampled. Cotton leafs were cut in half along the mid nerve. Using a clipper, 16 leaf sections of equal surface area of 400.9 mm2 each were cut, one from each base half and one from each top half part giving 4 sections per leaf and 16 sections per test. The leaf sections were distributed equally over two sub samples, one with and one without salicylhydroxamate. Using a chirurgical blade, all sections were given 7 parallel cuts (through and through) at approximately 2.5 mm apart over almost the full length of the section to guarantee lateral infiltration of the test solutions and gas exchange.
Within 10 minutes of plant sampling the sections were cut, initial subsample weight was registered using a high precision laboratory scale and the subsamples were placed in their solutions with and without salicylhydroxamate for 60 minutes in the dark, to guarantee dark adaptation.
Each sample contained 4 leaves, 4 sections per leaf providing 16 sections, 8 per subsample. In 1 subsample of 8 sections AOX was inhibited, the other subsample served as control. Thereafter each subsample material was tissue dried and stacked using filter paper sections cut with the same clipper to separate individual leaf sections. Each subsample consisted of 9 filter sections and 8 leaf sections. […]

[1] = plants grown in 0 ppvb O3, transferred to 60 ppvb O3 and transferred back to 0 ppvb O3
[2] = plants grown in 0 ppvb O3 and transferred to 30 ppvb O3
[3] = plants grown in 0 ppvb O3 and transferred to 60 ppvb O3
[4] = plants grown in 60 ppvb O3 and transferred to 0 ppvb O3

## O=[O+][O-] [ozone]
cotton, after exposure to higher ozone levels than in ontogenic phase
  time for AOX respiration rate to fully return to base level when the oxidative stress is reduced: ≤ 3 days
Ontogenic phase in 0 ppbv, time in 60 ppbv ozone ambient, returned to 0 ppbv
  AOX respiration after return to the 0 ppbv ozone ambient (in words): returned fully to its initial level
[1]
  AOX component: 2.95 arb units
  TDR excl AOX dTau/t without SHAM: 8.87E−06 μs/s
  TDR incl AOX dTau/t with SHAM: 1.18E−05 μs/s
[2]
  AOX component: 3.26 arb units
  TDR excl AOX dTau/t without SHAM: 7.51E−06 μs/s
  TDR incl AOX dTau/t with SHAM: 1.08E−05 μs/s
[3]
  AOX component: 3.77 arb units
  TDR excl AOX dTau/t without SHAM: 5.75E−06 μs/s
  TDR incl AOX dTau/t with SHAM: 9.52E−06 μs/s
Plants grown in 30 ppvb O3
  AOX component: 2.97 arb units
  TDR excl AOX dTau/t without SHAM: 6.96E−06 μs/s
  TDR incl AOX dTau/t with SHAM: 9.93E−06 μs/s
Plants grown in 60 ppvb O3
  AOX component: 3.33 arb units
  TDR excl AOX dTau/t without SHAM: 6.03E−06 μs/s
  TDR incl AOX dTau/t with SHAM: 9.36E−06 μs/s
[4]
  AOX component: 3.97 arb units
  TDR excl AOX dTau/t without SHAM: 7.13E−06 μs/s
  TDR incl AOX dTau/t with SHAM: 1.11E−05 μs/s
Plants grown up in 60 ppbv ozone, placed in zero ozone ambient
  AOX respiration during stay in the zero ozone level ambient (in words): did not lower their AOX respiration
